Values of other authors in patent US20030229057A1, “Continuous sulfatase inhibiting progestogen hormone replacement therapy” (priority 2002, published 2003).

Conditions: humans

## C#C[C@]1(OC(C)=O)CC[C@H]2[C@@H]3CCC4=CC(=NO)CC[C@@H]4[C@H]3CC[C@@]21CC (mixture of isomers) [norgestimate]
  norgestimate being converted to norelgestromin in vivo: ≥ 80%
